Among the data in the PolyMetriX glass transition set are glass transition temperature values, retold here.

Structures are written as SMILES.

On to `*/C=C(/*)CCCOC(=O)c1cc(-c2ccc(OC)cc2)ccc1-c1ccc(OC)cc1` (repeat unit), for which the glass transition temperature amounted to 72.40 °C.

As to `*/N=N/c1ccc(C(=O)NCCCCNC(=O)c2ccc(*)cc2)cc1` (repeat unit), the glass transition temperature worked out at 215.00 °C.

With `*C(=O)NCCCCCCNC(=O)c1ccc(N2C(=O)c3ccc(*)cc3C2=O)cc1` (repeat unit), the glass transition temperature worked out at 225.00 °C.

On to `*C(=O)NCCN(CCNC(=O)c1ccc(N2C(=O)c3ccc(*)cc3C2=O)cc1)c1ccc(/C=C/c2ccc([N+](=O)[O-])cc2)cc1` (repeat unit), for which the glass transition temperature was 178.00 °C.

In turn, `*C(=O)NCCNC(=O)c1ccc(N2C(=O)c3ccc(*)cc3C2=O)cc1` (repeat unit) came in with a glass transition temperature of 235.00 °C.

`*C(=O)NNC(=O)c1ccc([Si](c2ccccc2)(c2ccccc2)c2ccc(C(=O)NNC(=O)c3ccc(*)o3)cc2)cc1` (repeat unit) returned a glass transition temperature of 252.00 °C.

Take `*C(=O)Nc1cc(NC(=O)c2ccc3[nH]c(-c4cc(-c5nc6cc(*)ccc6[nH]5)cc(N5C(=O)c6ccccc6C5=O)c4)nc3c2)cc(-c2nc3ccccc3[nH]2)c1` (repeat unit): the glass transition temperature turned out to be 334.00 °C.

`*C(=O)Nc1cc(NC(=O)c2ccc3c(c2)C(=O)N(c2cc(-c4nc5ccccc5s4)cc(N4C(=O)c5ccc(*)cc5C4=O)c2)C3=O)cc(-c2nc3ccccc3[nH]2)c1` (repeat unit) returned a glass transition temperature of 368.00 °C.

As to `*C(=O)Nc1ccc(-c2cc(-c3ccccc3)cc(-c3ccc(NC(=O)c4ccc5c(c4)C(=O)N(c4ccc(Oc6cccc7c(N8C(=O)c9ccc(*)cc9C8=O)cccc67)cc4)C5=O)cc3)n2)cc1` (repeat unit), the glass transition temperature amounted to 295.00 °C.

With `*C(=O)c1cc(C(=O)c2ccc3c(c2)C(=O)N(c2cccc(N4C(=O)c5ccc(*)cc5C4=O)c2)C3=O)cc(-c2ccccc2)c1` (repeat unit), the glass transition temperature was 266.50 °C.

`*C(=O)c1cc2c(cc1Cl)C(=O)N(c1cc(Cl)cc(N3C(=O)c4cc(*)c(Cl)cc4C3=O)c1)C2=O` (repeat unit) registered a glass transition temperature of 311.00 °C.

For `*C/C=C/COC(=O)NCCCCCCNC(=O)O*` (repeat unit), the glass transition temperature was -39.00 °C.

Molecule `*CC(F)(F)C(F)(F)COC(=O)NCCCCCCNC(=O)O*` (repeat unit) yielded a glass transition temperature of 9.00 °C.

Molecule `*CCCCCCCCCCCCCCCCOC(=O)NCCCCCCNC(=O)O*` (repeat unit) showed a glass transition temperature of 39.00 °C.

For the molecule `*CCCCCCCCCCCCCCCCOC(=O)NCc1ccc(CNC(=O)O*)cc1` (repeat unit), the glass transition temperature is 47.00 °C.

`*CCCCCCCCCCOc1ccc(-c2cc(-c3ccc(-c4ccccc4)cc3)c(-c3ccc(NC(=O)c4ccc(C(=O)Nc5ccc(-c6c(-c7ccc(-c8ccccc8)cc7)cc(-c7ccc(O*)cc7)cc6-c6ccc(-c7ccccc7)cc6)cc5)cc4)cc3)c(-c3ccc(-c4ccccc4)cc3)c2)cc1` (repeat unit) had a glass transition temperature of 111.00 °C.

`*CCCCCCCCCNC(=S)N*` (repeat unit): the glass transition temperature is 48.00 °C.

With `*CCCCCCCCCOC(=O)NCCCCCCNC(=O)O*` (repeat unit), the glass transition temperature came out at 58.00 °C.

For `*CCCCCCCCNC(=O)NCc1ccc(CNC(=O)N*)cc1` (repeat unit), the glass transition temperature came to 68.00 °C.

For `*CCCCCCCCNC(=O)c1ccc(C(=O)N*)c(Sc2ccccc2)c1` (repeat unit), the glass transition temperature is 110.00 °C.

With `*CCCCCCCCNC(=O)c1ccc(C(=O)N*)cc1` (repeat unit), the glass transition temperature is 123.00 °C.

Molecule `*CCCCCCCCNC(=O)c1cccc(C(=O)N*)c1` (repeat unit) yielded a glass transition temperature of 110.00 °C.

`*CCCCCCCNC(=O)N*` (repeat unit) gave a glass transition temperature of 62.00 °C.

As to `*CCCCCCNC(=O)c1ccc(C(=O)N*)c(Oc2ccc(Br)cc2)c1` (repeat unit), the glass transition temperature turned out to be 116.00 °C.

Take `*CCCCCCNC(=O)c1ccc(C(=O)N*)c(Oc2ccc(F)cc2)c1` (repeat unit): the glass transition temperature was 113.00 °C.

In turn, `*CCCCCCNC(=O)c1ccc(C(=O)N*)c(Oc2ccccc2)c1` (repeat unit) had a glass transition temperature of 108.00 °C.

`*CCCCCCNC(=O)c1ccc(C(=O)N*)c(Sc2ccccc2)c1` (repeat unit) displayed a glass transition temperature of 121.00 °C.

With `*CCCCCCOC(=O)NCCCCCCNC(=O)O*` (repeat unit), the glass transition temperature was 168.00 °C.

Molecule `*CCCCCCOc1ccc(-c2cc(-c3ccc(-c4ccccc4)cc3)c(-c3ccc(NC(=O)c4ccc(C(=O)Nc5ccc(-c6c(-c7ccc(-c8ccccc8)cc7)cc(-c7ccc(O*)cc7)cc6-c6ccc(-c7ccccc7)cc6)cc5)cc4)cc3)c(-c3ccc(-c4ccccc4)cc3)c2)cc1` (repeat unit) showed a glass transition temperature of 121.50 °C.

Molecule `*CCCCCNC(=O)c1ccc(C(=O)N*)cc1` (repeat unit) returned a glass transition temperature of 177.00 °C.

The molecule `*CCCCCNc1nc(NCCCCCc2nc3cc(-c4ccc5[nH]c(*)nc5c4)ccc3[nH]2)nc(N(CC)CC)n1` (repeat unit) came in with a glass transition temperature of 190.00 °C.

In turn, `*CCCCCOC(=O)NCCCCCCNC(=O)O*` (repeat unit) showed a glass transition temperature of 33.00 °C.

`*CCCCCOC(=O)c1ccccc1C(=O)[O][Pb][O]C(=O)c1ccccc1C(=O)OCCCCCOC(=O)NCCCCCCNC(=O)O*` (repeat unit) came in with a glass transition temperature of -19.20 °C.

`*CCCCNC(=O)C(=O)N*` (repeat unit) gave a glass transition temperature of 120.00 °C.

Take `*CCCCOC(=O)NCCCCCCNC(=O)O*` (repeat unit): the glass transition temperature worked out at 33.50 °C.

`*CCCCOC(=O)NCCCCNC(=O)O*` (repeat unit) returned a glass transition temperature of 7.00 °C.

Turning to `*CCCOC(=O)NCCCCCCNC(=O)O*` (repeat unit), the glass transition temperature worked out at 55.00 °C.

The molecule `*CCN(CCOC(=O)NCCCCCCNC(=O)O*)c1ccccc1` (repeat unit) returned a glass transition temperature of 31.90 °C.

Molecule `*CCNC(=O)Nc1ccc(Cc2ccc(NC(=O)NCCOCCO*)cc2)cc1` (repeat unit) displayed a glass transition temperature of 8.00 °C.

The molecule `*CCOC(=O)NCCCCCCCCCNC(=O)O*` (repeat unit) displayed a glass transition temperature of 44.00 °C.

`*CCOCCOCCOCCOCCOCCOC(=O)NCCCCCCNC(=O)O*` (repeat unit): the glass transition temperature is -31.00 °C.

`*CCOCCOCCOCCOc1ccc(C(=O)Nc2cc(NC(=O)c3ccc(O*)cc3)cc(-c3nc4ccccc4[nH]3)c2)cc1` (repeat unit) yielded a glass transition temperature of 163.00 °C.

For the molecule `*COC(=O)NCCCCCCNC(=O)OCc1ccc(*)o1` (repeat unit), the glass transition temperature came out at 33.00 °C.

`*NC(=O)NCCCCCCNC(=O)Nc1cccc(*)n1` (repeat unit) had a glass transition temperature of 170.00 °C.

Consider `*NNC(=O)c1ccc(C(=O)NNC(=O)c2ccc([Si](c3ccccc3)(c3ccccc3)c3ccc(C(*)=O)cc3)cc2)c2ccccc12` (repeat unit), for which the glass transition temperature was 270.00 °C.

As for `*Nc1cc(NC(=O)c2ccc(C(*)=O)cc2)cc(-c2nc3ccccc3[nH]2)c1` (repeat unit), the glass transition temperature came out at 267.50 °C.

On to `*Nc1cc(NC(=O)c2ccc(C(*)=O)cc2)cc(-c2nc3ccccc3oc2=O)c1` (repeat unit), for which the glass transition temperature came to 103.00 °C.

As for `*Nc1cc(NC(=O)c2ccc(C(*)=O)cc2)cc(C(=O)Oc2ccc(-c3ccccc3)cc2)c1` (repeat unit), the glass transition temperature was found to be 178.00 °C.

`*Nc1cc(NC(=O)c2ccc(C(*)=O)cc2)cc(C(=O)Oc2cccc3ccccc23)c1` (repeat unit): the glass transition temperature worked out at 192.00 °C.

As to `*Nc1ccc(-c2c(-c3ccc(-c4ccccc4)cc3)cc(-c3ccc(-c4cc(-c5ccc(-c6ccccc6)cc5)c(-c5ccc(NC(=O)c6ccc(C(*)=O)cc6)cc5)c(-c5ccc(-c6ccccc6)cc5)c4)cc3)cc2-c2ccc(-c3ccccc3)cc2)cc1` (repeat unit), the glass transition temperature stood at 305.00 °C.

Regarding `*Nc1ccc(-c2c(-c3ccccc3)cc(-c3ccc(-c4cc(-c5ccccc5)c(-c5ccc(NC(=O)c6ccc(C(*)=O)cc6)cc5)c(-c5ccccc5)c4)cc3)cc2-c2ccccc2)cc1` (repeat unit), the glass transition temperature was determined as 290.00 °C.

As to `*Nc1ccc(Cc2ccc(NC(=O)NCCCCCCNC(*)=O)cc2)cc1` (repeat unit), the glass transition temperature worked out at 78.00 °C.

In the case of `*Nc1cccc2c(N[Se]*)cccc12` (repeat unit), the glass transition temperature worked out at 53.00 °C.

Turning to `*[O][Zn][O]C(=O)c1ccccc1C(=O)OCCCCCOC(=O)NCCCCCCNC(=O)OCCCCCOC(=O)c1ccccc1C(*)=O` (repeat unit), the glass transition temperature is -4.30 °C.

For the molecule `*Oc1ccc(/N=C/C=N/c2ccc(OC(=O)NCCCCCCNC(*)=O)cc2)cc1` (repeat unit), the glass transition temperature came out at 80.00 °C.

Regarding `*Oc1ccc(C2(c3ccc(Oc4c(F)c(F)c(C(=O)c5c(F)c(F)c(*)c(F)c5F)c(F)c4F)cc3)c3ccccc3-c3ccccc32)cc1` (repeat unit), the glass transition temperature turned out to be 223.00 °C.

Turning to `*Oc1ccc(S(=O)(=O)c2ccc(Oc3ccc(C(=O)c4cc(I)cc(C(=O)c5ccc(*)cc5)c4)cc3)cc2)cc1` (repeat unit), the glass transition temperature was found to be 203.00 °C.

Consider `*c1ccc(C(=O)NCCCCCCCCNC(=O)c2ccc(-c3nc4ccccc4nc3*)cc2)cc1` (repeat unit), for which the glass transition temperature was 185.00 °C.

Regarding `*c1ccc(C(=O)NNC(=O)c2ccc(C(=O)NNC(=O)c3ccc(C4(*)OC(=O)c5ccccc54)cc3)cc2)cc1` (repeat unit), the glass transition temperature came to 237.00 °C.

Consider `*c1ccc(Oc2ccc3ccccc3c2-c2c(Oc3ccc(N4C(=O)c5ccc(NC(=O)Nc6ccc(-c7cc(-c8ccc(-c9ccccc9)cc8)cc(-c8ccc(NC(=O)Nc9ccc%10c(c9)C(=O)N(*)C%10=O)cc8)n7)cc6)cc5C4=O)cc3)ccc3ccccc23)cc1` (repeat unit), for which the glass transition temperature was 302.00 °C.

Molecule `*c1cccc(S(=O)(=O)NCCCCCNS(*)(=O)=O)c1` (repeat unit) registered a glass transition temperature of 74.00 °C.

On to `*c1cccc(S(=O)(=O)NCCNS(*)(=O)=O)c1` (repeat unit), for which the glass transition temperature came to 107.00 °C.
